“Also recorded” adds a separate entry of the source.
Tested on: target microorganisms
Test: Screen of synthesized peptides for binding to target microorganisms (targeting peptides, Tables 2 and 3)
Settings: microorganism(s) the targeting peptide was identified as binding to (Table 3)
Method: Once noted, these peptides were batch synthesized on a multiplex peptide synthesizer, yielding 5-10 mg of each peptide that could readily be screened for biological activity (e.g., binding activity and/or antimicrobial activity.
Other suitable targeting peptides include the peptides that have been identified as binding to particular target organisms as shown in Table 3 and/or Table 4.

Row | Substance | Target(s)
1 | 1T-30 (GKAKPYQVRQVLRAVDKLETRRKKGGR; synthetic novel tartgeting peptide IT-30) | S. aureus; also recorded: S. epidermidis; also recorded: C. xerosis; also recorded: C. striatum; also recorded: P. aeruginosa
2 | 1T-97 (GVAERNLDRITVAVAIIWTITIVGLGLVAKLG; synthetic novel tartgeting peptide IT-97) | A. naeslundii, F. nucleatum,; also recorded: P. gingivalis; also recorded: S. epidermidis,; also recorded: S. gordonii, S. mitis, S. mutans,; also recorded: S. oralis, S. salivarious,; also recorded: S. sanguinis
3 | 1T-34 (AFWLNILLTLLGYIPGIVHAVYIIAKR; synthetic novel tartgeting peptide IT-34) | S. aureus; also recorded: S. epidermidis; also recorded: C. jeikeium; also recorded: C. xerosis; also recorded: C. striatum; also recorded: P. aeruginosa
4 | 1T-10 (SPAGLPGDGDEA; synthetic novel tartgeting peptide IT-10) | M. xanthus
5 | 1T-71 (KIDTNQWPPNKEG; synthetic novel tartgeting peptide IT-71) | P. aeruginosa
6 | 1T-23 (PALVDLSNKEAVWAVLDDHS; synthetic novel tartgeting peptide IT-23) | S. mutans; also recorded: P. aeruginosa
7 | 1T-42 (TVLDWLSLALATGLFVYLLVALLRADRA; synthetic novel tartgeting peptide IT-42) | S. aureus; also recorded: S. epidermidis; also recorded: C. xerosis; also recorded: C. striatum; also recorded: P. aeruginosa
8 | 1T-113 (HGAHQRTGQRLHHHRGRTVSGCRQNPVAGVDPDEHR; synthetic novel tartgeting peptide IT-113) | S. mitis
9 | 1T-146 (RNSADNQTKIDKIRIDISLWDEHLNIVKQGK; synthetic novel tartgeting peptide IT-146) | A. naeslundii, F. nucleatum,; also recorded: P. gingivalis,; also recorded: T. denticolaS. gordonii,; also recorded: S. mitis, S. mutans, S. oralis,; also recorded: S. salivarious, S. sanguinis
10 | 1T-6 (KFINGVLSQFVLERK; synthetic novel tartgeting peptide IT-6) | S. mutans
11 | 1T-24 (EEAEEKLAEVSQAVKRLVR; synthetic novel tartgeting peptide IT-24) | P. aeruginosa
12 | 1T-85 (VMASLTWRMRAASASLPTHSRTDA; synthetic novel tartgeting peptide IT-85) | A. naeslundii, F. nucleatum,; also recorded: P. gingivalis; also recorded: S. epidermidis,; also recorded: S. gordonii, S. mitis, S. mutans,; also recorded: S. oralis, S. salivarious,; also recorded: S. sanguinis
13 | 1T-170 (AYGKVFSMDIMLSENDKLIVLRISHHSAWH; synthetic novel tartgeting peptide IT-170) | P. gingivalis
14 | 1T-69 (ILSQEADRKKLF; synthetic novel tartgeting peptide IT-69) | S. mutans; also recorded: P. aeruginosa
15 | 1T-132 (YSKKLFEYFYFIIFILIRYLIFYKIIQNKNYYINNIAYN; synthetic novel tartgeting peptide IT-132) | A. naeslundii, F. nucleatum,; also recorded: P. gingivalis; also recorded: S. epidermidis,; also recorded: S. gordonii, S. mitis, S. mutans,; also recorded: S. oralis, S. salivarious,; also recorded: S. sanguinis
16 | 1T-50 (HSDEPIPNILFKSDSVH; synthetic novel tartgeting peptide IT-50) | P. aeruginosa
17 | 1T-134 (SRLVREIKKKCRKS; synthetic novel tartgeting peptide IT-134) | A. naeslundii, F. nucleatum,; also recorded: P. gingivalis; also recorded: S. epidermidis,; also recorded: S. gordonii, S. mitis, S. mutans,; also recorded: S. oralis, S. salivarious,; also recorded: S. sanguinis
18 | 1T-60 (YLTSLGLDAAEQAQGLLTILKG; synthetic novel tartgeting peptide IT-60) | S. aureus; also recorded: S. epidermidis; also recorded: C. jeikeium; also recorded: C. striatum; also recorded: P. aeruginosa
19 | 1T-90 (RNVIGQVL; synthetic novel tartgeting peptide IT-90) | S. gordonii, S. mitis, S. mutans,; also recorded: S. oralis, S. sanguinis
20 | 1T-80 (GGNLGPGFGVIIP; synthetic novel tartgeting peptide IT-80) | S. pneumoniae
21 | 1T-110 (LAAKTAVCVGRAFM; synthetic novel tartgeting peptide IT-110) | A. naeslundii, P. gingivalis; also recorded: S. epidermidis,; also recorded: S. gordonii, S. mitis, S. mutans,; also recorded: S. oralis, S. sanguinis
22 | 1T-140 (IKGTIAFVGEDYVEIRVDKGVKLTFRKSAIANVINNNQQ; synthetic novel tartgeting peptide IT-140) | A. naeslundii, F. nucleatum,; also recorded: P. gingivalis; also recorded: S. epidermidis,; also recorded: S. gordonii, S. mitis, S. mutans,; also recorded: S. oralis, S. salivarious,; also recorded: S. sanguinis

Row | Substance | Target(s)
23 | 1T-130 (QKIIDMSKFLFSLILFIMIVVIYIGKSIGGYSAIVSSIMLELDTVLYNKKIFFIYK; synthetic novel tartgeting peptide IT-130) | A. naeslundii, F. nucleatum,; also recorded: P. gingivalis; also recorded: S. epidermidis,; also recorded: S. gordonii, S. mitis, S. mutans,; also recorded: S. oralis, S. salivarious,; also recorded: S. sanguinis
24 | 1T-31 (NATGTDIGEVTLTLGRFS; synthetic novel tartgeting peptide IT-31) | S. mutans; also recorded: P. aeruginosa
25 | 1T-149 (SVRAVKPIDETVARHFPGDFIVN; synthetic novel tartgeting peptide IT-149) | A. naeslundii, F. nucleatum,; also recorded: P. gingivalis,; also recorded: T. denticolaS. gordonii,; also recorded: S. mitis, S. mutans, S. oralis,; also recorded: S. salivarious, S. sanguinis
26 | 1T-168 (ELHRIMSTEKIGAVTKMNFDTAPIMSILPIDIYPKEVGIGS; synthetic novel tartgeting peptide IT-168) | A. naeslundii, F. nucleatum,; also recorded: P. gingivalis; also recorded: S. epidermidis,; also recorded: S. gordonii, S. mitis, S. mutans,; also recorded: S. oralis, S. salivarious,; also recorded: S. sanguinis
27 | 1T-95 (GHLLRVGGRVGGVGGVAGACAQPFGGQ; synthetic novel tartgeting peptide IT-95) | S. gordonii, S. mitis, S. mutans,; also recorded: S. oralis, S. sanguinis
28 | 1T-82 (FGVGVGIALFMAGYAIGKDLRKKFGKSC; synthetic novel tartgeting peptide IT-82) | S. pneumoniae
29 | 1T-162 (QKAKEESDRKAAVSYNGFHRVNVVSIPK; synthetic novel tartgeting peptide IT-162) | A. naeslundii, F. nucleatum,; also recorded: P. gingivalis,; also recorded: T. denticolaS. gordonii,; also recorded: S. mitis, S. mutans, S. oralis,; also recorded: S. salivarious, S. sanguinis
30 | 1T-3 (VLGIAGGLDAYGELVGGN; synthetic novel tartgeting peptide IT-3) | S. mutans; also recorded: S. gordonii
31 | 1T-21 (YVEEAVRAALKKEARISTEDTPVNLPSFDC; synthetic novel tartgeting peptide IT-21) | S. mutans; also recorded: P. aeruginosa
32 | 1T-81 (AIATGLDIVDGKFDGYLWA; synthetic novel tartgeting peptide IT-81) | S. pneumoniae
33 | 1T-9 (WAWAESPRCVSTRSNIHALAFRVEVAALT; synthetic novel tartgeting peptide IT-9) | M. xanthus
34 | 1T-8 (FSVAACGEQRAVTFVLLIEDLI; synthetic novel tartgeting peptide IT-8) | M. xanthus
35 | 1T-150 (YINRRLKKAFSDADIKEAPAEFYEELRRVQYV; synthetic novel tartgeting peptide IT-150) | A. naeslundii, F. nucleatum,; also recorded: P. gingivalis,; also recorded: T. denticolaS. gordonii,; also recorded: S. mitis, S. mutans, S. oralis,; also recorded: S. salivarious, S. sanguinis
36 | 1T-142 (FTQGIKRIVLKRLKED; synthetic novel tartgeting peptide IT-142) | A. naeslundii, F. nucleatum,; also recorded: P. gingivalis,; also recorded: T. denticolaS. gordonii,; also recorded: S. mitis, S. mutans, S. oralis,; also recorded: S. salivarious, S. sanguinis
37 | 1T-32 (VSFLAGWLCLGLAAWRLGNA; synthetic novel tartgeting peptide IT-32) | S. mutans
38 | 1T-27 (ALFVSLEQFLVVVAKSVFALCHSGTLS; synthetic novel tartgeting peptide IT-27) | S. mutans; also recorded: S. aureus; also recorded: S. epidermidis; also recorded: C. jeikeium; also recorded: C. xerosis; also recorded: C. striatum; also recorded: P. aeruginosa
39 | 1T-155 (LKLAFGVYPFQAMSQSDTAVSERNVLWR; synthetic novel tartgeting peptide IT-155) | A. naeslundii, F. nucleatum,; also recorded: P. gingivalis; also recorded: S. epidermidis,; also recorded: S. gordonii, S. mitis, S. mutans,; also recorded: S. oralis, S. salivarious,; also recorded: S. sanguinis
40 | 1T-152 (YVSADESAYNHIVTDDIPLADRRIEAVQQ; synthetic novel tartgeting peptide IT-152) | A. naeslundii, F. nucleatum,; also recorded: P. gingivalis; also recorded: S. epidermidis,; also recorded: S. gordonii, S. mitis, S. mutans,; also recorded: S. oralis, S. salivarious,; also recorded: S. sanguinis
41 | 1T-167 (SRMSEHSPAGLVFEVGPMDKGSFIILDSYHPTVKK; synthetic novel tartgeting peptide IT-167) | A. naeslundii, F. nucleatum,; also recorded: P. gingivalis; also recorded: S. epidermidis,; also recorded: S. gordonii, S. mitis, S. mutans,; also recorded: S. oralis, S. salivarious,; also recorded: S. sanguinis
42 | 1T-112 (SDNDGKLILGTSQ; synthetic novel tartgeting peptide IT-112) | S. gordonii
43 | 1T-59 (AVGNNLGKDNDSGHRGKKHRKHKHR; synthetic novel tartgeting peptide IT-59) | S. aureus; also recorded: S. epidermidis; also recorded: P. aeruginosa
44 | 1T-108 (WGPLGPERPLW; synthetic novel tartgeting peptide IT-108) | S. gordonii, S. mitis, S. mutans,; also recorded: S. oralis, S. salivarious,; also recorded: S. sanguinis
